Patent US9376420B2 (YUHAN CORPORATION, priority 2012, dated 2016)

Molecular target: T1, human LXRβ (Homo sapiens, UniProt P55055)
T1 construct: expressed in transfected cells; host or cells: HEK293 cells (ATCC CRL-1573), transient transfection with pFA-hLXRβ/GAL4 and pUAS
T1 sequence (P55055 222-460 limits assumed): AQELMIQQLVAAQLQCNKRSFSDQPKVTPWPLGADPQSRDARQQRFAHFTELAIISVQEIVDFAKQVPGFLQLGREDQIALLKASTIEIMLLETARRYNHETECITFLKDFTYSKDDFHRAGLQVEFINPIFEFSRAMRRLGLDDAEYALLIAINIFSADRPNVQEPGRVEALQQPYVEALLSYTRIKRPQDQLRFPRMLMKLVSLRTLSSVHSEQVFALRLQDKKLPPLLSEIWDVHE
Test: Assay for Transcriptional Activity of LXRβ (GAL4-hLXRβ LBD luciferase reporter, transient transfection)
Assay type: cell-based
Conditions: HEK293 cells transfected with pFA-hLXRβ/GAL4 and pUAS, 24 hours; for Emax: fold value in comparison with the control (DMSO-treated group); for EC50: increase of transcriptional activity of LXRβ, average of three independent tests
Summary of the method: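 HEK293 cells transiently co-transfected with GAL4-hLXRβ LBD and 5×GAL4-UAS luciferase reporter, treated 24 h at 37 °C with compounds over 9 points (0.01–50 μM, half-log). Luminescence read after lysis; EC50 from four-parameter fit, mean of three independent tests, with a known LXR agonist as positive control.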

SMILES: N#Cc1ccc(-c2ccc(C3CC(C(O)(C(F)(F)F)C(F)(F)F)=NN3c3ccccc3Cl)cc2)cn1 (stereo not drawn) [Example 267, 1-(2-chloro-phenyl)-5-[4-(6-cyano-pyridin-3-yl)-phenyl]-3-[di-(trifluoromethyl)-hydroxy-methyl]-4,5-dihydro-1H-pyrazole]
- Emax: 59 fold
- EC50: 442 nM

SMILES: OC(C1=NN(c2ccccc2Cl)C(c2ccc(-c3ccc(F)nc3)cc2)C1)(C(F)(F)F)C(F)(F)F (stereo not drawn) [Example 268, 1-(2-chloro-phenyl)-5-[4-(6-fluoro-pyridin-3-yl)-phenyl]-3-[di-(trifluoromethyl)-hydroxy-methyl]-4,5-dihydro-1H-pyrazole]
- Emax: 88 fold
- EC50: 452 nM

SMILES: CCOc1ccc(-c2ccc(C3CC(C(O)(C(F)(F)F)C(F)(F)F)=NN3c3ccccc3Cl)cc2)cn1 (stereo not drawn) [Example 269, 1-(2-chloro-phenyl)-5-[4-(6-ethoxy-pyridin-3-yl)-phenyl]-3-[di-(trifluoromethyl)-hydroxy-methyl]-4,5-dihydro-1H-pyrazole]
- Emax: 44 fold
- EC50: 7930 nM

SMILES: COc1cc(C)c(-c2ccc(C3CC(C(O)(C(F)(F)F)C(F)(F)F)=NN3c3ccccc3Cl)cc2)cn1 (stereo not drawn) [Example 270, 1-(2-chloro-phenyl)-5-[4-(6-methoxy-4-methyl-pyridin-3-yl)-phenyl]-3-[di-(trifluoromethyl)-hydroxy-methyl]-4,5-dihydro-1H-pyrazole]
- Emax: 48 fold
- EC50: 437 nM

SMILES: Cc1ccncc1-c1ccc(C2CC(C(O)(C(F)(F)F)C(F)(F)F)=NN2c2ccccc2Cl)cc1 (stereo not drawn) [Example 271, 1-(2-chloro-phenyl)-5-[4-(4-methyl-pyridin-3-yl)-phenyl]-3-[di-(trifluoromethyl)-hydroxy-methyl]-4,5-dihydro-1H-pyrazole]
- Emax: 45 fold
- EC50: 547 nM

SMILES: OC(C1=NN(c2ccccc2Cl)C(c2ccc(-c3ccc(C(F)(F)F)nc3)cc2)C1)(C(F)(F)F)C(F)(F)F (stereo not drawn) [Example 272, 1-(2-chloro-phenyl)-5-[4-(6-trifluoromethyl-pyridin-3-yl)-phenyl]-3-[di-(trifluoromethyl)-hydroxy-methyl]-4,5-dihydro-1H-pyrazole]
- Emax: 24 fold
- EC50: 2250 nM

SMILES: COC(=O)c1cncc(-c2ccc(C3CC(C(O)(C(F)(F)F)C(F)(F)F)=NN3c3ccccc3Cl)cc2)c1 (stereo not drawn) [Example 273, 1-(2-chloro-phenyl)-5-[4-(5-methoxycarbonyl-pyridin-3-yl)-phenyl]-3-[di-(trifluoromethyl)-hydroxy-methyl]-4,5-dihydro-1H-pyrazole]
- Emax: 45 fold
- EC50: 1150 nM

SMILES: COc1ncc(-c2ccc(C3CC(C(O)(C(F)(F)F)C(F)(F)F)=NN3c3ccccc3Cl)cc2)cc1C=O (stereo not drawn) [Example 274, 1-(2-chloro-phenyl)-5-[4-(5-formyl-6-methoxy-pyridin-3-yl)-phenyl]-3-[di-(trifluoromethyl)-hydroxy-methyl]-4,5-dihydro-1H-pyrazole]
- Emax: 55 fold
- EC50: 1010 nM

SMILES: Cc1cccc(-c2ccc(C3CC(C(O)(C(F)(F)F)C(F)(F)F)=NN3c3ccccc3Cl)cc2)n1 (stereo not drawn) [Example 276, 1-(2-chloro-phenyl)-5-[4-(6-methyl-pyridin-2-yl)-phenyl]-3-[di-(trifluoromethyl)-hydroxy-methyl]-4,5-dihydro-1H-pyrazole]
- Emax: 87 fold
- EC50: 1240 nM

SMILES: OC(C1=NN(c2ccccc2Cl)C(c2ccc(-c3cccnc3)cc2)C1)(C(F)(F)F)C(F)(F)F (stereo not drawn) [Example 277, 1-(2-chloro-phenyl)-5-[4-(pyridin-3-yl)-phenyl]-3-[di-(trifluoromethyl)-hydroxy-methyl]-4,5-dihydro-1H-pyrazole]
- Emax: 65 fold
- EC50: 364 nM

SMILES: N#Cc1cncc(-c2ccc(C3CC(C(O)(C(F)(F)F)C(F)(F)F)=NN3c3ccccc3Cl)cc2)c1 (stereo not drawn) [Example 278, 1-(2-chloro-phenyl)-5-[4-(5-cyano-pyridin-3-yl)-phenyl]-3-[di-(trifluoromethyl)-hydroxy-methyl]-4,5-dihydro-1H-pyrazole]
- Emax: 68 fold
- EC50: 731 nM

SMILES: COc1ncc(-c2ccc(C3CC(C(O)(C(F)(F)F)C(F)(F)F)=NN3c3ccccc3Cl)cc2)cn1 (stereo not drawn) [Example 279, 1-(2-chloro-phenyl)-5-[4-(2-methoxy-pyrimidin-5-yl)-phenyl]-3-[di-(trifluoromethyl)-hydroxy-methyl]-4,5-dihydro-1H-pyrazole]
- Emax: 67 fold
- EC50: 931 nM

SMILES: COc1ncc(-c2ccc(C3CC(C(O)(C(F)(F)F)C(F)(F)F)=NN3c3ccccc3Cl)cc2)c(OC)n1 (stereo not drawn) [Example 280, 1-(2-chloro-phenyl)-5-[4-(2,4-dimethoxy-pyrimidin-5-yl)-phenyl]-3-[di-(trifluoromethyl)-hydroxy-methyl]-4,5-dihydro-1H-pyrazole]
- Emax: 81 fold
- EC50: 556 nM

SMILES: OC(C1=NN(c2ccccc2Cl)C(c2ccc(-c3cnc(Cl)nc3)cc2)C1)(C(F)(F)F)C(F)(F)F (stereo not drawn) [Example 281, 1-(2-chloro-phenyl)-5-[4-(2-chloro-pyrimidin-5-yl)-phenyl]-3-[di-(trifluoromethyl)-hydroxy-methyl]-4,5-dihydro-1H-pyrazole]
- Emax: 66 fold
- EC50: 1790 nM

SMILES: CN(CCO)S(=O)(=O)c1cccc(-c2ccc(C3CC(C(O)(C(F)(F)F)C(F)(F)F)=NN3c3ccccc3Cl)cc2)c1 (stereo not drawn) [Example 283, 1-(2-chloro-phenyl)-5-{3′-[(2-hydroxy-ethyl)-methyl-sulfamoyl]-biphenyl-4-yl}-3-[di-(trifluoromethyl)-hydroxy-methyl]-4,5-dihydro-1H-pyrazole]
- Emax: 51 fold
- EC50: 270 nM

SMILES: CN(C)S(=O)(=O)c1cccc(-c2ccc(C3CC(C(O)(C(F)(F)F)C(F)(F)F)=NN3c3ccccc3Cl)cc2)c1 (stereo not drawn) [Example 284, 1-(2-chloro-phenyl)-5-(3′-dimethylsulfamoyl-biphenyl-4-yl)-3-[di-(trifluoromethyl)-hydroxy-methyl]-4,5-dihydro-1H-pyrazole]
- Emax: 56 fold
- EC50: 635 nM

SMILES: CN(CCCS(=O)(=O)c1cccc(-c2ccc(C3CC(C(O)(C(F)(F)F)C(F)(F)F)=NN3c3ccccc3Cl)cc2)c1)C(=O)OC(C)(C)C (stereo not drawn) [Example 285, 5-{3′-[3-(N-BOC-N-methyl-amino)-propane-1-sulfonyl]-biphenyl-4-yl}-1-(2-chloro-phenyl)-3-[di-(trifluoromethyl)-hydroxy-methyl]-4,5-dihydro-1H-pyrazole]
- Emax: 73 fold
- EC50: 62 nM

SMILES: CS(=O)(=O)c1cccc(-c2ccc(C3CC(C(O)(C(F)(F)F)C(F)(F)F)=NN3c3ccccc3Cl)cc2)n1 (stereo not drawn) [Example 286, 1-(2-chloro-phenyl)-5-{4-[6-(methylsulfonyl)-pyridin-2-yl]-phenyl}-3-[di-(trifluoromethyl)-hydroxy-methyl]-4,5-dihydro-1H-pyrazole]
- Emax: 36 fold
- EC50: 632 nM

SMILES: OC(C1=NN(c2ccccc2Cl)C(c2ccc(-c3cc(F)c(-n4cncn4)cc3F)cc2)C1)(C(F)(F)F)C(F)(F)F (stereo not drawn) [Example 287, 1-(2-chloro-phenyl)-5-[2′,5′-difluoro-4′-(1H-1,2,4-triazol-1-yl)-biphenyl-4-yl]-3-[di-(trifluoromethyl)-hydroxy-methyl]-4,5-dihydro-1H-pyrazole]
- Emax: 47 fold
- EC50: 519 nM

SMILES: CS(=O)(=O)c1cc(F)c(-c2ccc(C3CC(C(O)(C(F)(F)F)C(F)(F)F)=NN3c3ccccc3Cl)cc2)c(F)c1 (stereo not drawn) [Example 288, 1-(2-chloro-phenyl)-5-[2′,6′-difluoro-4′-(methylsulfonyl)-biphenyl-4-yl]-3-[di-(trifluoromethyl)-hydroxy-methyl]-4,5-dihydro-1H-pyrazole]
- Emax: 40 fold
- EC50: 727 nM

SMILES: CS(=O)(=O)c1ccc(-c2ccc(C3CC(C(O)(C(F)(F)F)C(F)(F)F)=NN3c3ccccc3Cl)cc2)c(C(F)(F)F)c1 (stereo not drawn) [Example 289, 1-(2-chloro-phenyl)-5-[4′-(methylsulfonyl)-2′-(trifluoromethyl)-biphenyl-4-yl]-3-[di-(trifluoromethyl)-hydroxy-methyl]-4,5-dihydro-1H-pyrazole]
- Emax: 32 fold
- EC50: 320 nM

SMILES: CS(=O)(=O)c1ccc(-c2ccc(C3CC(C(O)(C(F)(F)F)C(F)(F)F)=NN3c3ccccc3Cl)cc2)cc1C#N (stereo not drawn) [Example 290, 1-(2-chloro-phenyl)-5-[3′-cyano-4′-(methylsulfonyl)-biphenyl-4-yl]-3-[di-(trifluoromethyl)-hydroxy-methyl]-4,5-dihydro-1H-pyrazole]
- Emax: 29 fold
- EC50: 161 nM

SMILES: CS(=O)(=O)N1CC=C(c2ccc(C3CC(C(O)(C(F)(F)F)C(F)(F)F)=NN3c3ccccc3Cl)cc2)CC1 (stereo not drawn) [Example 298, 1-(2-chloro-phenyl)-5-[4-(1-methanesulfonyl-1,2,3,6-tetrahydropyridin-4-yl)-phenyl]-3-[di-(trifluoromethyl)-hydroxy-methyl]-4,5-dihydro-1H-pyrazole]
- Emax: 88 fold
- EC50: 304 nM

SMILES: CCS(=O)(=O)N1CC=C(c2ccc(C3CC(C(O)(C(F)(F)F)C(F)(F)F)=NN3c3ccccc3Cl)cc2)CC1 (stereo not drawn) [Example 299, 1-(2-chloro-phenyl)-5-[4-(1-ethanesulfonyl-1,2,3,6-tetrahydropyridin-4-yl)-phenyl]-3-[di-(trifluoromethyl)-hydroxy-methyl]-4,5-dihydro-1H-pyrazole]
- Emax: 83 fold
- EC50: 316 nM
